Laboratory results taken from patent US20140256660A1, “ANTIBIOTIC CONJUGATES LINKED WITH STEROID DRUGS” (Allergan, Inc., priority 2013, published 2014).

Test system: human recombinant carboxylesterases
Assay: In vitro metabolic stability (rate of metabolite formation) in human recombinant carboxylesterases
Format: in vitro ADME
Settings: human recombinant carboxylesterases 0.1 mg/mL, 1 μM test compound, pH 6.0, 37° C.
Experimental: Dutch Belted rabbits were euthanized with an overdose of sodium pentobarbital. The corneas were collected and homogenized in ice-cold potassium chloride solution (pH=7.4). The homogenate was centrifuged at 755×g for 30 min at 4° C. and aliquots of the supernatant were stored at or below −70° C. until metabolism experiments were conducted. Prior to storing the homogenates an aliquot was removed for determination of protein concentrations by calculating the 260 nm absorbance using a spectrophotometer. Human recombinant carboxylesterases were purchased from a commercial vendor (BD Gentest™, Bedford, Mass.)
All metabolic stability experiments were performed in triplicate in 96-well plate format. The final incubation mixture contained 1 μM test compound, 0.3 mg/mL corneal protein homogenate or 0.1 mg/mL human recombinant carboxylesterase mixture in a final volume of 0.5 mL 0.1 M potassium phosphate buffer (pH=6.0). The final percentage of solvent in the incubation was less than 1.0% to prevent inhibition of enzymatic activity. Following a pre-incubation at 37° C., test article (i.e. ester linked hybrids) was added to initiate the reaction. At designated time points (typically less than 60 minutes to capture the linear range of metabolite formation), 0.05 mL aliquots were removed from the incubation mixtures using a clean pipet tip and immediately placed in organic solvent to stop any esterase activity.
Hydrolysis of the metabolites was confirmed to be due to esterase activity and not chemical lability. The samples were analyzed by liquid chromatography with mass spectrometry (LC-MS/MS) detection to determine the metabolite concentrations resulting from the metabolism of ester linked hybrids. Internal standards were used to compensate for variability from sample processing, chromatographic elution, mass spectrometer response and ion suppression by matrix components.

Row | Molecule | Rate of formation Metabolite 2 (Gatifloxacin) (metabolite Gatifloxacin) | Rate of formation Metabolite 1 (Prednisolone) (metabolite Prednisolone) | Rate of formation Metabolite 1 (Dexamethasone) | other results
1 | C[C@H]1C[C@H]2[C@@H]3CCC4=CC(=O)C=C[C@]4(C)[C@@]3(F)[C@@H](O)C[C@]2(C)[C@@]1(O)C(=O)COC(=O)CCC(=O)OC[C@@H](NC(=O)C(Cl)Cl)[C@H](O)c1ccc([N+](=O)[O-])cc1 (relative stereo) [Compound 73, (2R,3R)-2-[(dichloroacetyl)amino]-3-hydroxy-3-(4-nitrophenyl)propyl 2-[(8S,9R,10S,11S,13S,14S,16S,17R)-9-fluoro-11,17-dihydroxy-10,13,16-trimethyl-3-oxo-6,7,8,9,10,11,12,13,14,15,16,17-dodecahydro-3H-cyclopenta[a]phenanthren-17-yl]-2-oxoethyl rel-butanedioate] |  |  |  | Rate of formation Metabolite 1 (Betamethasone) (metabolite Betamethasone): 1440 ± 120 nM/min/mg; Rate of formation Metabolite 2 (Chloramphenicol) (metabolite Chloramphenicol): 107 ± 13 nM/min/mg
2 | COc1c(N2CCN(C(=O)OCOC(=O)CCC(=O)N[C@@H](C(=O)OCC(=O)[C@]3(O)CCC4C5CCC6=CC(=O)C=C[C@@]6(C)C5[C@H](O)C[C@]43C)C(C)C)C(C)C2)c(F)cc2c(=O)c(C(=O)O)cn(C3CC3)c12 (relative stereo) [Compound 29, rel-1-cyclopropyl-7-{4-[(10R)-14-[(10S,11R,13R,17S)-11,17-dihydroxy-10,13-dimethyl-3-oxo-6,7,8,9,10,11,12,13,14,15,16,17-dodecahydro-3H-cyclopenta[a]phenanthren-17-yl]-5,8,11,14-tetraoxo-10-(propan-2-yl)-2,4,12-trioxa-9-azatetradecan-1-oyl]-3-methylpiperazin-1-yl}-6-fluoro-8-methoxy-4-oxo-1,4-dihydroquinoline-3-carboxylic acid] | 36.5 ± 1.1 nM/min/mg | 17.3 ± 0.1 nM/min/mg |  | 
3 | rel-1-cyclopropyl-6-fluoro-7-[4-(4-{2-[(8R,9S,10R,11R,13R,14R,16S,17S)-9-fluoro-11,17-dihydroxy-10,13,16-trimethyl-3-oxo-6,7,8,9,10,11,12,13,14,15,16,17-dodecahydro-3H-cyclopenta[a]phenanthren-17-yl]-2-oxoethoxy}-4-oxobutanoyl)-3-methylpiperazin-1-yl]-8-methoxy-4-oxo-1,4-dihydroquinoline-3-carboxylic acid [Compound 10] | 7.71 ± 0.57 nM/min/mg |  | 737 ± 28 nM/min/mg | 
4 | COc1c(N2CC3CCCN(C(=O)OCOC(=O)CCC(=O)N[C@@H](C(=O)OCC(=O)[C@]4(O)CCC5C6CCC7=CC(=O)C=C[C@@]7(C)C6[C@H](O)C[C@]54C)C(C)C)C3C2)c(F)cc2c(=O)c(C(=O)O)cn(C3CC3)c12 (relative stereo) [Compound 61, rel-1-cyclopropyl-7-{1-[(10R)-14-[(10S,11R,13R,17S)-11,17-dihydroxy-10,13-dimethyl-3-oxo-6,7,8,9,10,11,12,13,14,15,16,17-dodecahydro-3H-cyclopenta[a]phenanthren-17-yl]-5,8,11,14-tetraoxo-10-(propan-2-yl)-2,4,12-trioxa-9-azatetradecan-1-oyl]octahydro-6H-pyrrolo[3,4-b]pyridin-6-yl}-6-fluoro-8-methoxy-4-oxo-1,4-dihydroquinoline-3-carboxylic acid] |  | 11.8 ± 0.5 nM/min/mg |  | Rate of formation Metabolite 2 (Moxifloxacin): 18.5 ± 1.7 nM/min/mg
5 | COc1c(N2CCNC(C)C2)c(F)cc2c(=O)c(C(=O)OCOC(=O)OCC(=O)[C@]3(O)CC[C@@H]4[C@H]5CCC6=CC(=O)C=C[C@@]6(C)C5[C@H](O)C[C@]43C)cn(C3CC3)c12 (relative stereo) [Compound 42, [({2-[(8R,10S,11R,13R,14R,17S)-11,17-dihydroxy-10,13-dimethyl-3-oxo-6,7,8,9,10,11,12,13,14,15,16,17-dodecahydro-3H-cyclopenta[a]phenanthren-17-yl]-2-oxoethoxy}carbonyl)oxy]methyl rel-1-cyclopropyl-6-fluoro-8-methoxy-7-(3-methylpiperazin-1-yl)-4-oxo-1,4-dihydroquinoline-3-carboxylate] | 668 ± 102 nM/min/mg | 633 ± 85 nM/min/mg |  | 
6 | COc1c(N2CCNC(C)C2)c(F)cc2c(=O)c(C(=O)OCOC(=O)CCC(=O)OCC(=O)[C@]3(O)CC[C@@H]4[C@H]5CCC6=CC(=O)C=C[C@@]6(C)C5[C@H](O)C[C@]43C)cn(C3CC3)c12 (relative stereo) [Compound 44, ({[1-cyclopropyl-6-fluoro-8-methoxy-7-(3-methylpiperazin-1-yl)-4-oxo-1,4-dihydroquinolin-3-yl]carbonyl}oxy)methyl 2-[(8R,10S,11R,13R,14R,17S)-11,17-dihydroxy-10,13-dimethyl-3-oxo-6,7,8,9,10,11,12,13,14,15,16,17-dodecahydro-3H-cyclopenta[a]phenanthren-17-yl]-2-oxoethyl rel-butanedioate] | 760 ± 110 nM/min/mg | 365 ± 32 nM/min/mg |  | 
7 | COc1c(N2CCN(C(=O)OCOC(=O)CCC(=O)OCC(=O)[C@@]3(O)[C@H](C)CC4C5CCC6=CC(=O)C=C[C@]6(C)[C@@]5(F)[C@@H](O)C[C@@]43C)C(C)C2)c(F)cc2c(=O)c(C(=O)O)cn(C3CC3)c12 (relative stereo) [Compound 11, rel-1-cyclopropyl-6-fluoro-7-[4-({[(4-{2-[(9R,10S,11S,13S,16R,17R)-9-fluoro-11,17-dihydroxy-10,13,16-trimethyl-3-oxo-6,7,8,9,10,11,12,13,14,15,16,17-dodecahydro-3H-cyclopenta[a]phenanthren-17-yl]-2-oxoethoxy}-4-oxobutanoyl)oxy]methoxy}carbonyl)-3-methylpiperazin-1-yl]-8-methoxy-4-oxo-1,4-dihydroquinoline-3-carboxylic acid] | 56 ± 2.1 nM/min/mg |  | 44.5 ± 2.62 nM/min/mg | 
8 | COc1c(N2CCNC(C)C2)c(F)cc2c(=O)c(C(=O)OCCCC(=O)OCC(=O)[C@]3(O)CC[C@@H]4[C@H]5CCC6=CC(=O)C=C[C@@]6(C)C5[C@H](O)C[C@]43C)cn(C3CC3)c12 (relative stereo) [Compound 41, 4-{2-[(8R,10S,11R,13R,14R,17S)-11,17-dihydroxy-10,13-dimethyl-3-oxo-6,7,8,9,10,11,12,13,14,15,16,17-dodecahydro-3H-cyclopenta[a]phenanthren-17-yl]-2-oxoethoxy}-4-oxobutyl rel-1-cyclopropyl-6-fluoro-8-methoxy-7-(3-methylpiperazin-1-yl)-4-oxo-1,4-dihydroquinoline-3-carboxylate] |  |  |  | Rate of formation Metabolite 1 (Gatifloxacin) (metabolite Gatifloxacin): 7.60 ± 2.1 nM/min/mg; Rate of formation Metabolite 2 (Prednisolone) (metabolite Prednisolone): 74.6 ± 4.1 nM/min/mg
9 | COc1c(N2C[C@H]3CCCN[C@H]3C2)c(F)cc2c(=O)c(C(=O)OCCCOC(=O)c3ccc(C(=O)OCC(=O)[C@@]4(O)[C@H](C)C[C@H]5[C@@H]6CCC7=CC(=O)C=C[C@]7(C)[C@@]6(F)[C@@H](O)C[C@@]54C)cc3)cn(C3CC3)c12 (relative stereo) [Compound 54, 3-[({1-cyclopropyl-6-fluoro-8-methoxy-7-[(4aR,7aR)-octahydro-6H-pyrrolo[3,4-b]pyridin-6-yl]-4-oxo-1,4-dihydroquinolin-3-yl}carbonyl)oxy]propyl 2-[(8S,9R,10S,11S,13S,14S,16R,17R)-9-fluoro-11,17-dihydroxy-10,13,16-trimethyl-3-oxo-6,7,8,9,10,11,12,13,14,15,16,17-dodecahydro-3H-cyclopenta[a]phenanthren-17-yl]-2-oxoethyl rel-benzene-1,4-dicarboxylate] |  |  | 67.8 ± 1.78 nM/min/mg | Rate of formation Metabolite 2 (Moxifloxacin): 0.717 ± 0.625 nM/min/mg
